This is an account of results in patent US11413266B2, “Use of cannabinoids in the treatment of inflammatory skin diseases” (GW Pharma Limited, priority 2015, dated 2022).

Assay [1] concerns MCP-2. Kind of assay: MCP-2 ELISA in supernatants of poly-(I:C)-stimulated HaCaT cells. In kind it is cell-based, human. The note with it: poly-(I:C)-stimulated HaCaT; for MCP-2 production: 6 h; for MCP-2 protein levels: all tested at 5, 10 and 20 μM, data not shown. Background: In an ELISA, binding on a coated surface is turned into a signal by an enzyme label.
The test system of assay [2] is human epidermal keratinocytes. The experiment in a line: Summary score, UVB-induced inflammation model (solar dermatitis). Type of assay: cell-based.
Assay [3] deals with IL6. The experiment in a line: UVB-induced IL6 release in HaCaT keratinocytes, ELISA. Type of assay: cell-based, human.
For assay [4], the system named is IL8. Kind of assay: PolyIC-induced IL8 release in NHEK keratinocytes, ELISA. Type of assay: cell-based, human. The note with it: NHEKs; for TLR3-activation induced augmented release of IL8: higher concentration.
For assay [5], the system named is IL8. The experiment in a line: UVB-induced IL8 release in HaCaT keratinocytes, ELISA. Type of assay: cell-based, human.
The subject of assay [6] is HPV-Ker keratinocytes. The experiment in a line: Summary score, SEB/TSLP-induced inflammation model (atopic dermatitis). In kind it is cell-based, human. The note with it: for SCORE: sum of +1 anti-inflammatory, 0 no effect, −1 pro-inflammatory, Table 3; for Overall action in the SEB/TSLP-induced inflammation model: conclusion on Table 3.
The test system of assay [7] is IL6. Kind of assay: UVB-induced IL6 mRNA expression in HaCaT keratinocytes, RT-qPCR. In kind it is cell-based, human. For orientation: In qPCR the cycle at which signal appears reflects the starting amount.
For assay [8], the system named is human epidermal keratinocytes. Kind of assay: Summary score, TLR3-induced inflammation model (microbial infection-induced dermatitis). In kind it is cell-based.
Assay [9] has as its system IL8. Kind of assay: UVB-induced IL8 mRNA expression in HaCaT keratinocytes, RT-qPCR. In kind it is cell-based, human.
Assay [10] relates to IL8. The experiment in a line: UVB-induced IL8 release in NHEK keratinocytes, ELISA. Type of assay: cell-based, human. The note with it: NHEKs; only at given (mostly lower) concentrations.
In assay [11] the test system is IL8. Kind of assay: SEB/TSLP-induced IL8 release in HPV-Ker keratinocytes, ELISA. Type of assay: cell-based, human. The note with it: lower concentrations.
For assay [12], the system named is IL6. Kind of assay: PolyIC-induced IL6 release in NHEK keratinocytes, ELISA. The note with it: NHEKs; for PolyIC-induced elevated release of IL6: concentration not singled out (0.3 and 3 μM tested); for TLR3-activation induced augmented release of IL6: higher concentration. In kind it is cell-based, human.
The subject of assay [13] is IL6. Kind of assay: UVB-induced IL6 release in NHEK keratinocytes, ELISA. The note with it: NHEKs; for UVB-upregulated expression of IL6: only at given (mostly lower) concentrations; for UVB-upregulated IL6: higher concentrations. Type of assay: cell-based, human.
The subject of assay [14] is IL6. Kind of assay: PolyIC-induced IL6 release in HPV-Ker keratinocytes, ELISA. The settings on record: HPV-KER cells. In kind it is cell-based, human.
The subject of assay [15] is ACD in 2,4-dinitrofluorobenzene (DNFB)-treated wild-type mice. The note with it: Karsak et al. 2007, cited from earlier work.
Setting [16] is: 0.3 μM, sum of +1 anti-inflammatory, 0 no effect, −1 pro-inflammatory, Table 2.
[17] abbreviates: 3 μM, sum of +1 anti-inflammatory, 0 no effect, −1 pro-inflammatory, Table 2.
[18] abbreviates: concentration not singled out (0.3 and 3 μM tested).
The mark [19] stands for this setting: 0.3 μM, sum of +1 anti-inflammatory, 0 no effect, −1 pro-inflammatory, Table 1.
The mark [20] stands for this setting: 3 μM, sum of +1 anti-inflammatory, 0 no effect, −1 pro-inflammatory, Table 1.

In the case of `CCCCCc1cc(O)c2c(c1)OC(C)(CCC=C(C)C)C=C2` (stereo not drawn) [CBC, cannabichromene], the MCP-2 production result in [1] (5 μM) is given as “no effect”; in assay [1] (10 μM), “no effect”; in assay [1] (20 μM), “able to reduce”.

As to `C=C(C)[C@@H]1CCC(C)=C[C@H]1c1c(O)cc(CCCCC)c(C(=O)O)c1O` [CBDA, Cannabidiolic acid], the SCORE in assay [2] (setting [16]) is reported as 1; in [2] (setting [17]), −1; in [6] (0.3 μM), 0; in assay [6] (3 μM), 1; in [8] (setting [19]) it was 7; in assay [8] (setting [20]), 10. The “UVB-upregulated IL6 (ELISA)” value in assay [3] (0.3 μM) was “pro-inflammatory effects”. In assay [4] (setting [18]), the “PolyIC-induced elevated release of IL8” value is recorded as “dose-dependent suppression”. Also, the “UVB-upregulated IL8 (ELISA)” value in assay [5] (0.3 μM) and in [5] (3 μM) was “pro-inflammatory effects” throughout. Moreover, in assay [6], the “Overall action in the SEB/TSLP-induced inflammation model” value is “most effective”. In addition, the MCP-2 protein levels result in assay [1] is “No effect”. Further, in assay [7] (0.3 μM), the “UVB-upregulated IL6 (RT-qPCR)” value is on record as “pro-inflammatory effects”. In addition, the “UVB-upregulated IL8 (RT-qPCR)” value in assay [9] (0.3 μM) and in assay [9] (3 μM) was “pro-inflammatory effects” throughout. Further, the “UVB-upregulated expression of IL8” value in assay [10] is reported as “significantly suppress”. Further, the “SEB/TSLP-induced up-regulation of IL8 release” value (from here on “SEB/TSLP-induced up-regulation”) in assay [11] was “did not induce any significant effect”. Further, the “PolyIC-induced elevated release of IL6” value in assay [12] is listed as “dose-dependent suppression”.

As to `C=C(C)[C@@H]1CCC(C)=C[C@H]1c1c(O)cc(CCC)cc1O` [CBDV, Cannabidivarin], the SCORE in [2] (0.3 µM) turned out to be 2; in [2] (3 µM), 5; in assay [6] (0.3 μM), 0; in assay [6] (3 μM) it was 1; in assay [8] (0.3 µM), 7; in [8] (3 µM), 5. Besides, the “UVB-upregulated IL6 (ELISA)” value in [3] (3 μM) is “anti-inflammatory effects”. For the same compound, the “TLR3-activation induced augmented release of IL8” value in assay [4] was “significantly further augmented”. In addition, the “UVB-upregulated IL8 (ELISA)” value in [5] (3 μM) is on record as “anti-inflammatory effects”. Moreover, the “UVB-upregulated expression of IL6” value in assay [13] is on record as “significantly suppress”. Besides, the “Overall action in the SEB/TSLP-induced inflammation model” value in assay [6] is “most effective”. Also, the “UVB-upregulated IL6 (RT-qPCR)” value in [7] (0.3 μM) and in assay [7] (3 μM) was “anti-inflammatory effects” each time. Further, the “UVB-upregulated IL8 (RT-qPCR)” value in assay [9] (3 μM) is “anti-inflammatory effects”. In addition, the “SEB/TSLP-induced up-regulation” value in assay [11] is “did not induce any significant effect”. Besides, in assay [12], the “PolyIC-induced elevated release of IL6” value was “did not affect”.

As for `C=C(C)[C@@H]1CCC(C)=C[C@H]1c1c(O)cc(CCC)c(C(=O)O)c1O` [CBDVA, cannabidivarinic acid], the MCP-2 protein levels result in [1] was “No effect”.

For the compound `CCCCCc1cc(O)c(C/C=C(\C)CCC=C(C)C)c(O)c1` [CBG, Cannabigerol], the SCORE in assay [2] (setting [16]) amounted to 2; in [2] (setting [17]), 3; in assay [6] (0.3 μM), 0; in [6] (3 μM), 1; in assay [8] (setting [19]) it was 5; in assay [8] (setting [20]), 9. Further, in [3] (3 μM), the “UVB-upregulated IL6 (ELISA)” value was “anti-inflammatory effects”. Further, the “PolyIC-induced elevated release of IL8” value in assay [4] (setting [18]) is reported as “dose-dependent suppression”. The “UVB-upregulated IL8 (ELISA)” value in assay [5] (3 μM) is “pro-inflammatory effects”. For the same compound, the “UVB-upregulated IL6” value in assay [13] was “pro-inflammatory effects”. In addition, in assay [6], the “Overall action in the SEB/TSLP-induced inflammation model” value is recorded as “most effective”. For the same compound, the figures for the MCP-2 production entry in assay [1] (5 μM), in [1] (10 μM) and in assay [1] (20 μM) were “no effect”, “no effect” and “able to reduce”, respectively. Besides, the “UVB-upregulated IL6 (RT-qPCR)” value in assay [7] (0.3 μM) and in assay [7] (3 μM) was “anti-inflammatory effects” each time. In assay [10], the “UVB-upregulated expression of IL8” value is reported as “significantly suppress”. For the same compound, the “SEB/TSLP-induced up-regulation” value in assay [11] is “did not induce any significant effect”. In assay [12], the “PolyIC-induced elevated release of IL6” value is “dose-dependent suppression”.

For `CCCCCc1cc(O)c(C/C=C(\C)CCC=C(C)C)c(O)c1C(=O)O` [CBGA, cannabigerolic acid], the MCP-2 protein levels entry in [1] is “No effect”.

In the case of `CCCc1cc(O)c(C/C=C(\C)CCC=C(C)C)c(O)c1` [CBGV, Cannabigervarin], the SCORE in assay [2] (setting [16]) is −1; in assay [2] (setting [17]) it was 2; in assay [6] (0.3 μM) it was −1; in assay [6] (3 μM), 1; in assay [8] (setting [19]), 5; in assay [8] (setting [20]), 5. The “UVB-upregulated IL6 (ELISA)” value in assay [3] (0.3 μM) is recorded as “pro-inflammatory effects”; in assay [3] (3 μM), “anti-inflammatory effects”. In assay [4] (setting [18]), the “PolyIC-induced elevated release of IL8” value is on record as “did not affect”. For the same compound, the “UVB-upregulated IL8 (ELISA)” value in assay [5] (0.3 μM) and in assay [5] (3 μM) was “pro-inflammatory effects” throughout. Further, the “UVB-upregulated expression of IL6” value in [13] is reported as “significantly suppress”. The MCP-2 production entry in assay [1] (10 μM) is recorded as “able to reduce”. Further, the “UVB-upregulated IL6 (RT-qPCR)” value in assay [7] (0.3 μM) and in assay [7] (3 μM) was “anti-inflammatory effects” each time. Moreover, the “PolyIC-induced IL6 levels” value in assay [14] (0.3 μM) is “did not affect”. Moreover, the “TLR3-activation induced augmented release of IL6” value in [14] (3 μM) and in assay [12] was “significantly further augmented” throughout. For the same compound, the “UVB-upregulated IL8 (RT-qPCR)” value in assay [9] (0.3 μM) and in assay [9] (3 μM) was “pro-inflammatory effects” throughout.

For the compound `CCCCCc1cc(O)c2c(c1)OC(C)(C)[C@@H]1CCC(C)=C[C@@H]21` [THC, tetrahydrocannabinol], in assay [15] (subcutaneous and topical application), the ACD result was “attenuated”. In assay [15] (vs untreated mice), the ear swelling result is listed as “significantly decreased” and the “recruitment of Gr-1 positive granulocytes” value is recorded as “reduced”.

On to `CCCc1cc(O)c2c(c1)OC(C)(C)[C@@H]1CCC(C)=C[C@@H]21` [THCV, Tetrahydrocannabivarin], for which the SCORE was 4 in [2] (setting [16]); 0 in [2] (setting [17]); −1 in assay [6] (0.3 μM); 1 in assay [6] (3 μM); 7 in [8] (setting [19]); 7 in assay [8] (setting [20]). For the same compound, the “UVB-upregulated IL6 (ELISA)” value in assay [3] (0.3 μM) was “anti-inflammatory effects”; in assay [3] (3 μM), “pro-inflammatory effects”. Besides, the “TLR3-activation induced augmented release of IL8” value in assay [4] was “did not affect”. Also, the “PolyIC-induced elevated release of IL8” value in [4] (low concentration) is reported as “significantly suppressed”. For the same compound, the “UVB-upregulated IL8 (ELISA)” value in assay [5] (0.3 μM) is recorded as “anti-inflammatory effects”; in assay [5] (3 μM), “pro-inflammatory effects”. Moreover, the “UVB-upregulated IL6” value in assay [13] was “pro-inflammatory effects”. Besides, the MCP-2 production entry in assay [1] (5 μM) is on record as “no effect”; in [1] (10 μM) it was “able to reduce”; in assay [1] (20 μM), “able to reduce”. In addition, in assay [7] (3 μM), the “UVB-upregulated IL6 (RT-qPCR)” value was “anti-inflammatory effects”. Also, the “UVB-upregulated IL8 (RT-qPCR)” value in [9] (0.3 μM) is “anti-inflammatory effects”. In addition, in assay [12], the “TLR3-activation induced augmented release of IL6” value is “significantly further augmented”. In assay [12] (low concentration), the “PolyIC-induced IL6 level” value is “did not affect”.

For the compound `CCCc1cc2c(c(O)c1C(=O)O)[C@@H]1C=C(C)CC[C@H]1C(C)(C)O2` [THCVA, tetrahydrocannabivarinic acid], the MCP-2 protein levels result in assay [1] is “No effect”.
